Test system: airway inflammatory cell accumulation
Experiment: Murine model of allergen-induced airway inflammation: airway inflammatory cell accumulation
Type: in vivo, C57BL/6 mice
Settings: for Cell Influx, Total leukocytes: vehicle 795000; for Cell Influx, Eosinophils: vehicle 335000; for Cell Influx, Macrophages: vehicle 443000
Method: Murine model of allergen-induced airway inflammation and hyperresponsiveness.
C57BL/6 mice (8-9 weeks old) are actively sensitized to ovalbumin (OA) on day 0 and on day 14 by a intraperitoneal injection of 10 µg OA + 1 mg Al(OH)3 (gel suspension) in 0.2 ml sterile saline. On day 21, the mice were challenged with 5.0 % OA aerosol for 18 minutes. The aerosol is generated by a De Vilbiss Ultra-Neb 90 ultrasonic nebulizer, the outlet of which is connected to a small plexiglass chamber containing the animals. The mice are dosed with the RXR antagonist Compound B (10 and 30 mg/kg intraperitoneally) daily for three days, 48 hours, 24 hours, and immediately prior to OA challenge. Animals are used on […].
Airway Inflammatory Cell Accumulation: On day 24, three days after the challenge with OA aerosol, animals are anesthetized with urethane (2.4 g/kg) and tracheotomized with a 23 gauge catheter. Lungs are lavaged with aliquots (2 x 1 ml) of sterile Hank's balanced salt solution without Ca^++ and Mg^++. Lavage fluid is recovered after 30 sec by gentle aspiration and pooled for each animal. Samples then are centrifuged at 2000 rpm for 15 minutes at 5 °C. Red blood cells are lysed from the resulting pellet with 0.5 ml distilled water and the cells remaining in the pellet are reconstituted with 5 ml HBSS. Samples are centrifuged a second time at 2000 rpm for 15 minutes at 5 °C. The resulting pellet is suspended in 1 ml of HBSS. Total cell number is determined from an aliquot of the cell suspension using a hemocytometer. For cytological preparations, the cells are fixed on cytocentrifuged slides stained with a modified Wright's stain. Differential counts on at least 300 cells are made using standard morphological criteria to classify cells.

Structure (SMILES): CCCCOc1c(\C(C)=C/C=C/C(C)=C/C(=O)O)cc(C(C)(C)C)cc1C(C)(C)C [Compound B, (2E,4E,6Z)-7-(3,5-di-tert.butyl-2-butyloxyphenyl]-3-methyl-2,4,6-octatrienoic acid]
- Percent of reduction, Eosinophils (10 mg/kg intraperitoneally): 48%
- Percent of reduction, Macrophages (10 mg/kg intraperitoneally): 35%
- Percent of reduction, Total leukocytes (10 mg/kg intraperitoneally): 39%
- Cell Influx, Total leukocytes (10 mg/kg intraperitoneally daily for three days): 488000 cells/ml
- Cell Influx, Eosinophils (10 mg/kg intraperitoneally): 176000 cells/ml
- Cell Influx, Macrophages (10 mg/kg intraperitoneally): 289000 cells/ml
- Percent of reduction, Eosinophils (30 mg/kg intraperitoneally): 73%
- Percent of reduction, Macrophages (30 mg/kg intraperitoneally): 62%
- Percent of reduction, Total leukocytes (30 mg/kg intraperitoneally): 66%
- Cell Influx, Total leukocytes (30 mg/kg intraperitoneally daily for three days): 271000 cells/ml
- Cell Influx, Eosinophils (30 mg/kg intraperitoneally): 91000 cells/ml
- Cell Influx, Macrophages (30 mg/kg intraperitoneally): 172000 cells/ml

From patent EP1161410B1, “RETINOID ANTAGONISTS AND USE THEREOF” (Basilea Pharmaceutica AG, priority 1999, dated 2000)
